Measured values as given in patent publication US20110306606A1, “NOVEL 2,6-SUBSTITUTED-3-NITROPYRIDINE DERIVATIVE, METHOD FOR PREPARING SAME, AND PHARMACEUTICAL COMPOSITION INCLUDING SAME” (priority 2008, published 2011).
Read-outs that look alike come from different tables or passages of the source.

Legend:
[1] = system: Osteoblasts (Calvarial cells); test: Alkaline phosphatase (ALP) activity in osteoblasts (Calvarial cells); format: cell-based, mice; conditions: 1 μM compound, 3 days
Method: Differentiation and activity of osteoblasts were indirectly evaluated by measuring an ALP activity having a close relationship with osteogenesis.
Osteoblasts (Calvarial cells) prepared in Experimental Example 1 and MC3T3-E1 cells (available from RIKEN Cell Bank, Japan) were collected in α-MEM supplemented with 10% FBS, followed by cell counting. The cells were dispensed into 24-well cultureware at a density of 2×10^4 cells/well. After culturing of the cells for 24 hours, the culture media were discarded and replaced with fresh media in which test compounds were diluted to a concentration of 1 μM (1 mL/well). In addition, the vehicle control group containing 0.1% DMSO was also treated. […] When the experiment was terminated, the supernatant was removed and the cells were washed three times with cold phosphate buffer at 4°. 0.2% Triton X-100 was added to the washed cells which were then subjected to three cycles of freezing at −70° and thawing at room temperature for the complete lysis of cells. The cell extracts were pooled and centrifuged to collect the cell supernatant which was used for the measurement of ALP activity and proteins. The protein concentration was measured using a BCA assay kit (manufactured by Sigma-Aldrich). For the measurement of ALP activity, p-nitrophenylphosphate was added to the cell supernatant which was then incubated at 37° for 30 minutes, and the reaction was terminated with the addition of 50 μL of 0.2N sodium hydroxide. The standard curve was plotted at the absorbance of 405 nm using p-nitrophenol as a standard material and then the absorbance of test materials thus reacted was measured to determine the production amount of p-nitrophenol.
The ALP activity was calculated by dividing the amount of p-nitrophenol produced from each test material by the protein amount and the reaction time. Therefore, the unit of ALP activity was given in terms of p-nitrophenol/μg protein/min. The results are given in Tables 28-1 and 28-2 where the ALP activity unit of each test material was given in terms of % change through the comparison between the individual test materials and the vehicle control group.

[2] = system: formation of osteoclasts in co-culture of bone marrow cells and osteoblasts; test: Osteoclastogenesis inhibition via co-culture system (TRAP staining); format: cell-based, mice; conditions: 1 μM compound, 7 days co-culture, TRAP-positive multinucleated osteoclasts vs vehicle control; for inhibition at 1 µM: Mus musculus, Osteoclast, 168 h
Method: Osteoclastogenesis inhibitory effects of the compounds of the present invention were evaluated via a co-culture system (Reference: Endocrinology 137(1996), 2187 to 2190, E. Jimi et al.). A specific experimental method is as follows.
1) Preparation of Bone Marrow Cells and Osteoblasts
Femora and tibia were aseptically dissected from 6 to 8-week-old male ddY mice to harvest bone marrow cells by a conventional method using a syringe. In brief, tissues were removed from the dissected bone, the bone ends were cut off with scissors, and the bone marrow was isolated by pushing a medium-containing syringe (23G) against the one end of the cut bone. The isolated bone marrow was subjected to repeated piston movement of a syringe such that single cells were obtained (Reference: Endocrinology 123(1988), 2600 to 2602, Takahashi et al.). After removal of red blood cells within the bone marrow, the bone marrow cells recovered by centrifugation were placed in an α-MEM supplemented with 10% fetal bovine serum (FBS), followed by counting of nucleated cells and then were immediately used for a co-culture system.
2) Osteoclastogenesis Inhibition Experiment Via Co-Culture System
As the medium used for a co-culture system, a differentiation medium with the addition of differentiation factors 1α,25-dihydroxyvitamin D3 (10^−8M) and dexamethasone (10^−8M) to a-MEM supplemented with 10% FBS was used for the induction of osteoclastogenesis. First, the compounds dissolved in dimethyl sulfoxide (DMSO) at a concentration of 1 mM were diluted to 2 μM using the above-mentioned differentiation medium. As a vehicle control group, 0.2% (v/v) DMSO was added to the medium. 100 μL/well of each medium was added to 96-well plates. In addition, the above prepared bone marrow cells and osteoblasts were plated onto 96-well plates at a density of 1×10^5 cells/50 μL/well and 3×10^3 cells/50 μL/well, respectively. The total volume/well was 200 μL and the final compound concentration was 1 μM. The control group was 0.1% DMSO. The cells were cultured with exchange of the culture media with fresh media containing differentiation factors and test materials at an interval of 2 to 3 days.
7 days after culturing of cells, the formation of multinucleated osteoclasts was confirmed by microscopic examination, the medium was removed from the wells and then the cells were fixed in a 10% phosphate-buffered formalin solution. The degree of formation of mature osteoclasts was measured taking advantage of the characteristics of osteoclasts showing a positive reaction to a tartrate-resistant acid phosphatase (TRAP) staining solution. The TRAP staining solution was prepared in a manner such that naphthol AS-MS phosphate as a substrate and a coloring agent (Fast Red Violet LB salt) were dissolved in N,N-dimethylformamide, and a 0.1N NaHCO3 buffer solution containing 50 mM of tartaric acid was added thereto. Among the TRAP-positive cells under a light microscope, multinucleated osteoclasts having 6 to 7 nuclei were regarded as mature osteoclasts.
The degree of inhibition of osteoclastogenesis was calculated according to the following equation 1. The results are summarized in Table 27 below (Experiments were carried out for 4 wells/experimental group (n=4), and the results are given in terms of mean±standard deviation)
Inhibition of osteoclastogenesis(%)=(1−numbers of osteoclasts observed in experimental group/numbers of osteoclasts observed in vehicle control group)×100(%) [Equation 1]

[3] = system: Osteoblasts (Calvarial cells); test: Cytotoxicity test (MTT); conditions: 1 μM compound, 72 hours, in comparison with vehicle control
Method: (§1) For the preparation of osteoblasts (Calvarial cells), the calvaria were aseptically dissected from 1 to 2-day-old neonatal ICR mice and subjected to continuous reaction with a 0.2% collagenase solution to separate osteoblasts. The cell-suspended supernatant was centrifuged to recover osteoblasts which were grown to full confluence in an α-MEM supplemented with 10% FBS and then diluted to a desired cell density for use in the experiment.
(§2) Cytotoxicity of the compounds of the present invention was evaluated by carrying out the experiment described below.
(§3) The vehicle control group was established to contain 0.2% DMSO. 100 μL/well of the diluted drugs were dispensed into 96-well plates to which osteoblasts (calvarial cells) prepared in Experimental Example 1 were then added at a density of 1.0×10^4 cells/100 μL/well. Here, the final compound concentration in the cell culture was 1 μM, and the vehicle control group contained 0.1% DMSO. The cells were cultured in a 5% CO2 inhibitor at 37° for 72 hours. 25 μL of 3-(4,5-dimethyl-2-thiazolyl)-2,5-diphenyl-2H-tetrazolium bromide (MTT) dissolved in PBS (2 mg/mL) was added to each cell culture 4 hours before the end of culture. After completion of the reaction, the plates were centrifuged, the media were discarded, and 100 μL of formazan was added and dissolved in dimethyl sulfoxide (DMSO). Finally, the absorbance of the developed plates was measured at 540 nm. The cell viability was expressed as % concentration in comparison with the vehicle control group.

[4] = system: Osteoblasts (Calvarial cells); conditions: ICR, mouse, 72 h, 1 μM
Method: as §1, §2, §3

Row | Compound | ALP activity (1 μM, % of Control) Calvarial cell [1] | Osteoclastogenesis inhibition (%) 1 μM [2] [%] | Cell viability (%) Calvarial cell [3] [%] | inhibition at 1 µM [2] [%] | Cell viability (%) Calvarial cell [4] [%]
1 | CC(C)(C)Nc1ccc([N+](=O)[O-])c(Nc2ccc(N3CCOCC3)c(F)c2)n1 [Compound 199, 2-[(3-fluoro-4-morpholino)phenylamino]-6-(t-butylamino)-3-nitropyridine] | 118 % of Control | 67 | 118 |  | 
2 | CC(C)Nc1ccc([N+](=O)[O-])c(Nc2ccc(N3CCNCC3)c(F)c2)n1 [Compound 216, 2-[(3-fluoro-4-piperazino)phenylamino]-6-(isopropylamino)-3-nitropyridine] | 112 % of Control | 93 | 92 |  | 
3 | O=[N+]([O-])c1ccc(N2CCNCC2)nc1Nc1ccc(N2CCOCC2)c(F)c1 [Compound 201, 2-[(3-fluoro-4-morpholino)phenylamino]-6-(piperazin-1-yl)-3-nitropyridine] | 118 % of Control | 86 | 95 |  | 
4 | CNc1ccc([N+](=O)[O-])c(Nc2ccc(N3CCC(O)CC3)c(F)c2)n1 [Compound 236, 2-{[3-fluoro-4-(4-hydroxypiperidino)]phenylamino}-6-(methylamino)-3-nitropyridine] | 209 % of Control | 76 | 91 |  | 
5 | CC(C)(C)Nc1ccc([N+](=O)[O-])c(Nc2ccc(N3CCCCC3)c(F)c2)n1 [Compound 231, 2-[(3-fluoro-4-piperidino)phenylamino]-6-(t-butylamino)-3-nitropyridine] | 121 % of Control | 82 | 112 |  | 
6 | O=[N+]([O-])c1ccc(NCc2ccncc2)nc1Nc1ccc(-c2csc(C3CCCCC3)n2)cc1 [Compound 163, 2-[4-(2-cyclohexylthiazol-4-yl)phenylamino]-6-[(4-pyridyl)methylamino]-3-nitropyridine] |  |  |  | 67 | 99
7 | CNc1ccc([N+](=O)[O-])c(Nc2ccc(-c3csc(C4CCCCC4)n3)cc2)n1 [Compound 151, 2-[4-(2-cyclohexylthiazol-4-yl)phenylamino]-6-(methylamino)-3-nitropyridine] |  |  |  | 70 | 101
8 | CC(C)(C)Nc1ccc([N+](=O)[O-])c(Nc2ccc(-c3csc(C4CCCCC4)n3)cc2)n1 [Compound 154, 2-[4-(2-cyclohexylthiazol-4-yl)phenylamino]-6-(t-butylamino)-3-nitropyridine] |  |  |  | 78 | 116
9 | Nc1ccc(Nc2nc(NCc3ccncc3)ccc2[N+](=O)[O-])cc1 [Compound 66, 2-[4-(amino)phenylamino]-6-[(4-pyridyl)methylamino]-3-nitropyridine] |  |  |  | 65 | 107
10 | CC(C)Nc1ccc([N+](=O)[O-])c(Nc2ccc(-c3csc(C4CCCCC4)n3)cc2)n1 [Compound 152, 2-[4-(2-cyclohexylthiazol-4-yl)phenylamino]-6-(isopropylamino)-3-nitropyridine] |  |  |  | 85 | 105
11 | Cc1ccc(Nc2nc(N3CCNCC3)ccc2[N+](=O)[O-])cc1 [Compound 12, 2-(4-methylphenylamino)-6-(piperazin-1-yl)-3-nitropyridine] |  |  |  | 63 | 103
12 | CC(C)(C)c1ccc(Nc2nc(N3CCNCC3)ccc2[N+](=O)[O-])cc1 [Compound 42, 2-[4-(t-butyl)phenylamino]-6-(piperazin-1-yl)-3-nitropyridine] |  |  |  | 96 | 103
13 | CSc1ccc(Nc2nc(NCCCn3ccnc3)ccc2[N+](=O)[O-])cc1 [Compound 55, 2-[4-(methylsulfanyl)phenylamino]-6-[(3-imidazol-1-yl)propylamino]-3-nitropyridine] |  |  |  | 98 | 105
14 | CC(C)CNc1ccc([N+](=O)[O-])c(Nc2ccc(-c3csc(C4CCCCC4)n3)cc2)n1 [Compound 153, 2-[4-(2-cyclohexylthiazol-4-yl)phenylamino]-6-(isobutylamino)-3-nitropyridine] |  |  |  | 78 | 107
15 | Cc1nc(-c2ccc(Nc3nc(N4CCC(N)CC4)ccc3[N+](=O)[O-])cc2)cs1 [Compound 144, 2-[4-(2-methylthiazol-4-yl)phenylamino]-6-(4-aminopiperidino)-3-nitropyridine] |  |  |  | 100 | 35
16 | Cc1ccc(Nc2nc(-n3ccnc3C(C)C)ccc2[N+](=O)[O-])cc1 [Compound 7, 2-(4-methylphenylamino)-6-[(2-isopropyl)imidazol-1-yl]-3-nitropyridine] |  |  |  | 100 | 103
17 | Nc1ccc(Nc2nc(N3CCOCC3)ccc2[N+](=O)[O-])cc1 [Compound 64, 2-[4-(amino)phenylamino]-6-morpholino-3-nitropyridine] |  |  |  | 65 | 102
18 | Cc1nc(-c2ccc(Nc3nc(NCC(C)C)ccc3[N+](=O)[O-])cc2)cs1 [Compound 134, 2-[4-(2-methylthiazol-4-yl)phenylamino]-6-(isobutylamino)-3-nitropyridine] |  |  |  | 61 | 93
19 | Cc1ccc(Nc2nc(NCCc3cccnc3)ccc2[N+](=O)[O-])cc1 [Compound 10, 2-(4-methylphenylamino)-6-[2-(3-pyridyl)ethylamino]-3-nitropyridine] |  |  |  | 64 | 116
